Measured values reported in patent US20070149546A1, “4-Anilino-quinazoline derivatives as antiproliferative agents” (priority 2003, published 2007).
Counter-ions that a name gives are not always drawn.

Assays:
erbB2 [1] = target: T1, erbB2 (Homo sapiens, UniProt P04626); experiment: Clone 24 phospho-erbB2 cell assay, Test (e); assay type: cell-based; design: a cell line that overexpresses full length wild type erbB2 protein; expressed in transfected cells; host or cells: MCF7 (breast carcinoma) derived Clone 24 cells; conditions: inhibition of phosphorylation of erbB2 in a MCF7 (breast carcinoma) derived cell line (Clone 24)
Method: The cells were resuspended in Growth Medium.
3 days later, Growth Medium was removed from the wells and replaced with 100 ul Assay Medium (phenol red free DM , 2 mM glutamine, 1.2 mg/ml G418) either with or without erbB inhibitor compound. Plates were returned to the incubator for 4 hours and then 20 μl of 20% formaldehyde solution in PBS was added to each well and the plate was left at room temperature for 30 minutes. This fixative solution was removed with a multichannel pipette, 100 μl of PBS was added to each well and then removed with a multichannel pipette and then 50 μl PBS was added to each well. Plates were then sealed and stored for up to 2 weeks at 4° C.
Immunostaining was performed at room temperature. Wells were washed once with 200 μl PBS/Tween 20 (made by adding 1 sachet of PBS/Tween dry powder (Sigma, No. P3563) to 1 L of double distilled H2O) using a plate washer then 200 μl Blocking Solution (5% Marvel dried skimmed milk (Nestle) in PBS/Tween 20) was added and incubated for 10 minutes. Blocking Solution was removed using a plate washer and 200 μl of 0.5% Triton X-100/PBS was added to permeabalise the cells. After 10 minutes, the plate was washed with 200μl PBS/Tween 20 and then 200 μl Blocking Solution was added once again and incubated for 15 minutes. […] Then this primary antibody solution was removed from the wells using a plate washer followed by two 200 μl PBS/Tween 20 washes using a plate washer. […] From now onwards, wherever possible, plates were protected from light exposure, at this stage by sealing with black backing tape. The plates were incubated for 45 minutes and then the secondary antibody solution was removed from the wells followed by two 200 ul PBS/Tween 20 washes using a plate washer. Then 100 μl PBS was added to each plate, incubated for 10 minutes and then removed using a plate washer. Then a further 100 μl PBS was added to each plate and then, without prolonged incubation, removed using a plate washer. Then 50 μl of PBS was added to each well and plates were resealed with black backing tape and stored for up to 2 days at 4° C. before analysis.
The Fluorescence signal is each well was measured using an Acumen Explorer Instrument (Acumen Bioscience Ltd.), a plate reader that can be used to rapidly quantitate features of images generated by laser-scanning. The instrument was set to measure the number of fluorescent objects above a pre-set threshold value and this provided a measure of the phosphorylation status of erbB2 protein. Fluorescence dose response data obtained with each compound was exported into a suitable software package (such as Origin) to perform curve fitting analysis. Inhibition of erbB2 phosphorylation was expressed as an IC50 value.
Target sequence in this assay (P04626 23-1255): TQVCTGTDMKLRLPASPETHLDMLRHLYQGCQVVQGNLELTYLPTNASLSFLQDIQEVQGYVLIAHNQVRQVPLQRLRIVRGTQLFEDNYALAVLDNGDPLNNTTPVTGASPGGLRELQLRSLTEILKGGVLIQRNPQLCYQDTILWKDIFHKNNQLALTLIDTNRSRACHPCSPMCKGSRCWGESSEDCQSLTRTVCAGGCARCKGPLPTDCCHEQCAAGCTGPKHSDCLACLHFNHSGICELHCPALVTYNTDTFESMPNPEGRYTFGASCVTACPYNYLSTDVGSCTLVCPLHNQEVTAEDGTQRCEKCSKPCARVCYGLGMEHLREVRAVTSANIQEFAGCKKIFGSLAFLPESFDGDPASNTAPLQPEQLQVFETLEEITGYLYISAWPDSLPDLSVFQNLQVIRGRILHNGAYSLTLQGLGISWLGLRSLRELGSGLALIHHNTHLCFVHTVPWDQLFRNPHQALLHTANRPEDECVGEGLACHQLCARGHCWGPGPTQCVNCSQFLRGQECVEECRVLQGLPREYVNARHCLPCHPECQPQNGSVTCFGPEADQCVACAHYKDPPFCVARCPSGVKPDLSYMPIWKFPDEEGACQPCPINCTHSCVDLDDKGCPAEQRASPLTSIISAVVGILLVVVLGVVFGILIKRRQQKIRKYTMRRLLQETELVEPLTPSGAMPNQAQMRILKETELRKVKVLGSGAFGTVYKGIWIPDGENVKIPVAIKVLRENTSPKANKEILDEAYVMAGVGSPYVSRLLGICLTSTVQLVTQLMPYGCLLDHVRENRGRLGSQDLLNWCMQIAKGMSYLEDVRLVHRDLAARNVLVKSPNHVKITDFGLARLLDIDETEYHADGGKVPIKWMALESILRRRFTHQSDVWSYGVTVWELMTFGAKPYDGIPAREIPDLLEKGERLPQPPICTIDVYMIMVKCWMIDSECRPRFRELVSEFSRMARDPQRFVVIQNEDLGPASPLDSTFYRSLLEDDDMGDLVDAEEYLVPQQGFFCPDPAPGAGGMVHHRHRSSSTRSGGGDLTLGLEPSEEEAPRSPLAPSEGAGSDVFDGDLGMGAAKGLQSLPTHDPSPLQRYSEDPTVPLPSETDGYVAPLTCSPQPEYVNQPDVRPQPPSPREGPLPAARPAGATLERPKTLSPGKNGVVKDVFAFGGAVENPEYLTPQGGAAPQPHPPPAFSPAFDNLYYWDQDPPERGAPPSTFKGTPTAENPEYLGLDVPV

EGFR kinase = target: T2, EGFR kinase (Homo sapiens, UniProt P00533); experiment: Protein tyrosine kinase phosphorylation assay, Test (a): EGFR; assay type: biochemical; conditions: inhibition of phosphorylation of a tyrosine containing polypeptide substrate by EGFR kinase; ATP at Km
T2 construct: Recombinant intracellular fragments of EGFR and erbB2; made in house; host or cells: baculovirus/Sf21 insect cells
T2 sequence (P00533 669-1210 limits assumed): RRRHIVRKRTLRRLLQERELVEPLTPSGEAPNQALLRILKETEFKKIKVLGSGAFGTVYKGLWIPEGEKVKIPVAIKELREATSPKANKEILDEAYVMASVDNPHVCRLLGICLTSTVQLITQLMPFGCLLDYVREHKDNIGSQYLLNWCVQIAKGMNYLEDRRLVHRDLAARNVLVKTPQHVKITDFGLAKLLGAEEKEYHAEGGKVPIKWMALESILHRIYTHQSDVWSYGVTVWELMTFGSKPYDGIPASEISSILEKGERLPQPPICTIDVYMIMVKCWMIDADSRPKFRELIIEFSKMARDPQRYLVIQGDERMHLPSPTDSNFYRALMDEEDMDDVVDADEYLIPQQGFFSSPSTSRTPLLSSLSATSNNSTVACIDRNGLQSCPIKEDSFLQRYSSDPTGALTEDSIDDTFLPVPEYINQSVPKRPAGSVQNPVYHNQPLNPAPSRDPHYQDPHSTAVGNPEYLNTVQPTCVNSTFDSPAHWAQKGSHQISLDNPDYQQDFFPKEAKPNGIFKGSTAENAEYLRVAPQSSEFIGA
Method: (§1) This test measures the ability of a test compound to inhibit the phosphorylation of a tyrosine containing polypeptide substrate by an enzyme selected from the EGFR kinase and erbB2 kinase.
(§2) Recombinant intracellular fragments of EGFR and erbB2 (accession numbers X00588 and X03363 respectively) were cloned and expressed in the baculovirus/Sf21 system. Lysates were prepared from these cells by treatment with ice-cold lysis buffer (20 mM N-2-hydroxyethylpiperizine-N′-2-ethanesulfonic acid (HEPES) pH 7.5, 150 mM NaCl, 10% glycerol, 1% Triton X-100, 1.5 mM MgCl2, 1 mM ethylene glycol-bis(β-aminoethyl ether) N′,N′,N′,N′-tetraacetic acid (EGTA), plus protease inhibitors and then cleared by centrifugation.
(§3) Constitutive kinase activity of these recombinant proteins was determined by their ability to phosphorylate a synthetic peptide (made up of a random co-polymer of Glutamic Acid, Alanine and Tyrosine in the ratio of 6:3:1). Specifically, Maxisorb™ 96-well immunoplates were coated with synthetic peptide (0.2 μg of peptide in a 200 μl phosphate buffered saline (PBS) solution and incubated at 4° C. overnight). Plates were washed in 50 mM HEPES pH 7.4 at room temperature to remove any excess unbound synthetic peptide. […] Reactions were terminated by the removal of the liquid components of the assay followed by washing of the plates with PBS-T (phosphate buffered saline with 0.5% Tween 20).
(§4) The immobilised phospho-peptide product of the reaction was detected by immunological methods. Firstly, plates were incubated for 90 minutes at room temperature with anti-phosphotyrosine primary antibodies that were raised in the mouse (4G10 from Upstate Biotechnology). Following extensive washing, plates were treated with Horseradish Peroxidase (HRP) conjugated sheep anti-mouse secondary antibody (NXA931 from Amersham) for 60 minutes at room temperature. After further washing, HRP activity in each well of the plate was measured colorimetrically using 22′-Azino-di-[3-ethylbenzthiazoline sulfonate (6)] diammonium salt crystals (ABTS™ from Roche) as a substrate.
(§5) Kinase inhibition for a given compound was expressed as an IC50 value. […] The range of phosphorylation was calculated from the positive (vehicle plus ATP) and negative (vehicle minus ATP) control values.

erbB2 [2] = target: T1, erbB2; experiment: Protein tyrosine kinase phosphorylation assay, Test (a): erbB2; assay type: biochemical; design: Recombinant intracellular fragments of EGFR and erbB2; made in house; host or cells: baculovirus/Sf21 insect cells; conditions: inhibition of phosphorylation of a tyrosine containing polypeptide substrate by erbB2 kinase; ATP at Km
Method: as §1, §2, §3, §4, §5
Target sequence in this assay (P04626 676-1255 limits assumed): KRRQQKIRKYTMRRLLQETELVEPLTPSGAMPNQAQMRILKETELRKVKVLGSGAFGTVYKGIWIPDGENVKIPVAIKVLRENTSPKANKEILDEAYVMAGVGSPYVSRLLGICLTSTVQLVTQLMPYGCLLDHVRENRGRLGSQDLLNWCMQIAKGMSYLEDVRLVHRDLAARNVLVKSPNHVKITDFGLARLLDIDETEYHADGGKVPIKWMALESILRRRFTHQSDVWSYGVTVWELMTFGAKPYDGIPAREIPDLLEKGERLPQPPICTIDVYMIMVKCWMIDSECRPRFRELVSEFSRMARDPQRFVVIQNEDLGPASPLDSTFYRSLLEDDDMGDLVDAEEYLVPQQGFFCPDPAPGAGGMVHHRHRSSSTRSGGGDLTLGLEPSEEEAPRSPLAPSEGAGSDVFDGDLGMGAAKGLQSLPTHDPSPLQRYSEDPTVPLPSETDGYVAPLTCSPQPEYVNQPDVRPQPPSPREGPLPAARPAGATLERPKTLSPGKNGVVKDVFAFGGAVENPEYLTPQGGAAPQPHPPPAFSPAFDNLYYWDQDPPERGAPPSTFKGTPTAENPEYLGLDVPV

IC50 (erbB2 [1]) [µM] | IC50 (EGFR kinase) [µM] | IC50 (erbB2 [2]) [µM] | Structure (SMILES)
0.001 | 0.068 | 0.002 | C[C@H](CN(C)C)Oc1cccc2ncnc(Nc3ccc(OCc4cscn4)c(Cl)c3)c12 [Example 23]
0.003 | 8.4 | 0.017 | COc1cc(Nc2ncnc3cccc(OCCN(C)C)c23)ccc1OCc1cc(C)on1 [Example 37, 5-[2-(Dimethylamino)ethoxy]-N-{3-methoxy-4-[(5-methylisoxazol-3-yl)methoxy]phenyl}quinazolin-4-amine]
0.001 | 0.064 | 0.005 | C[C@H](CN(C)C)Oc1cccc2ncnc(Nc3ccc(Sc4nccn4C)c(Cl)c3)c12 [Example 53, N-{3-Chloro-4-[(1-methyl-1H-imidazol-2-yl)thio]phenyl}-5-[(1R)-2-(dimethylamino)-1-methylethoxy]quinazolin-4-amine dihydrochloride]
0.003 | 4.3 | 0.002 | COc1cc(Nc2ncnc3cccc(OC(C)CN(C)C)c23)ccc1Oc1ccccc1 (stereo not drawn) [Example 54, 5-[2-(Dimethylamino)-1-methylethoxy]-N-(3-methoxy-4-phenoxyphenyl)quinazolin-4-amine]
0.002 | 0.49 | 0.002 | CN(C)CC(C)(C)Oc1cccc2ncnc(Nc3ccc(OCc4ccccn4)c(Cl)c3)c12 [Example 56, N-[3-Chloro-4-(pyridin-2-ylmethoxy)phenyl]-5-[2-(dimethylamino)-1,1-dimethylethoxy]quinazolin-4-amine]
